From patent US9346799B2, “Useful combinations of monobactam antibiotics with beta-lactamase inhibitors” (Basilea Pharmaceutica AG, priority 2005, dated 2016)

Assays:
Experiment in all cases: MIC by broth microdilution (NCCLS M7-A5)
[1] = test system: Enterobacter cloacae B1102; details: E. cloacae B1102
[2] = test system: Enterobacter cloacae ATCC13047/CRO-R; details: E. cloacae ATCC13047/CRO-R
[3] = test system: Enterobacter cloacae M4018; details: E. cloacae M4018
[4] = test system: Enterobacter cloacae MRW; details: E. cloacae MRW
[5] = test system: Enterobacter aerogenes Zayakosky; details: E. aerogenes Zayakosky
[6] = test system: Enterobacter aerogenes B1; details: E. aerogenes B1
[7] = test system: Acinetobacter sp. J2
[8] = test system: Pseudomonas aeruginosa MK1184
[9] = test system: Pseudomonas aeruginosa 1973E
[10] = test system: Enterobacter cloacae P99
[11] = test system: Klebsiella pneumoniae CF104
[12] = test system: Serratia marcescens S6
[13] = test system: Stenotrophomonas malthophilia 1AC736; details: Stenotrophomonas maltophilia 1AC736
[14] = + compound 323 and clavulanate, 4 mg/L each
[15] = + 102 + clavulanate, 4 mg/L each
[16] = + 103 + clavulanate, 4 mg/L each
[17] = + 111 + clavulanate, 4 mg/L each
[18] = + 202 + clavulanate, 4 mg/L each
[19] = + 206 + clavulanate, 4 mg/L each
[20] = + 323 + clavulanate, 4 mg/L each
[21] = + 324 + clavulanate, 4 mg/L each

## CC1C(NC(=O)C(=NOCc2cc(=O)c(O)cn2O)c2csc(N)n2)C(=O)N1S(=O)(=O)O (centres unmarked) [Compound 1]
[1]; + clavulanate at fixed 4 mg/L
  Minimal Inhibitory Concentration of antibiotic: 32 mg/L
[1]; + compound 206 at fixed 4 mg/L
  Minimal Inhibitory Concentration of antibiotic: 16 mg/L
[1]; [14]
  Minimal Inhibitory Concentration of antibiotic: 8 mg/L
[1]; + compound 501 at fixed 4 mg/L
  Minimal Inhibitory Concentration of antibiotic: 16 mg/L
[1]; antibiotic alone
  Minimal Inhibitory Concentration of antibiotic: >32 mg/L
[2]; + clavulanate at fixed 4 mg/L
  Minimal Inhibitory Concentration of antibiotic: >32 mg/L
[2]; + compound 206 at fixed 4 mg/L
  Minimal Inhibitory Concentration of antibiotic: >32 mg/L
[2]; [14]
  Minimal Inhibitory Concentration of antibiotic: 8 mg/L
[2]; + compound 501 at fixed 4 mg/L
  Minimal Inhibitory Concentration of antibiotic: >32 mg/L
[2]; antibiotic alone
  Minimal Inhibitory Concentration of antibiotic: >32 mg/L
[3]; + clavulanate at fixed 4 mg/L
  Minimal Inhibitory Concentration of antibiotic: >32 mg/L
[3]; + compound 206 at fixed 4 mg/L
  Minimal Inhibitory Concentration of antibiotic: 8 mg/L
[3]; [14]
  Minimal Inhibitory Concentration of antibiotic: 2 mg/L
[3]; + compound 501 at fixed 4 mg/L
  Minimal Inhibitory Concentration of antibiotic: 16 mg/L
[3]; antibiotic alone
  Minimal Inhibitory Concentration of antibiotic: 32 mg/L
[4]; + clavulanate at fixed 4 mg/L
  Minimal Inhibitory Concentration of antibiotic: 32 mg/L
[4]; + compound 206 at fixed 4 mg/L
  Minimal Inhibitory Concentration of antibiotic: 16 mg/L
[4]; [14]
  Minimal Inhibitory Concentration of antibiotic: 4 mg/L
[4]; + compound 501 at fixed 4 mg/L
  Minimal Inhibitory Concentration of antibiotic: 32 mg/L
[4]; antibiotic alone
  Minimal Inhibitory Concentration of antibiotic: >32 mg/L
[5]; + clavulanate at fixed 4 mg/L
  Minimal Inhibitory Concentration of antibiotic: >32 mg/L
[5]; + compound 206 at fixed 4 mg/L
  Minimal Inhibitory Concentration of antibiotic: >32 mg/L
[5]; [14]
  Minimal Inhibitory Concentration of antibiotic: 16 mg/L
[5]; + compound 501 at fixed 4 mg/L
  Minimal Inhibitory Concentration of antibiotic: >32 mg/L
[5]; antibiotic alone
  Minimal Inhibitory Concentration of antibiotic: >32 mg/L
[6]; + clavulanate at fixed 4 mg/L
  Minimal Inhibitory Concentration of antibiotic: >32 mg/L
[6]; + compound 206 at fixed 4 mg/L
  Minimal Inhibitory Concentration of antibiotic: 16 mg/L
[6]; [14]
  Minimal Inhibitory Concentration of antibiotic: 4 mg/L
[6]; + compound 501 at fixed 4 mg/L
  Minimal Inhibitory Concentration of antibiotic: >32 mg/L
[6]; antibiotic alone
  Minimal Inhibitory Concentration of antibiotic: 32 mg/L
[7]; Acinetobacter baumannii J2, + 102 + clavulanate, 4 mg/L each
  MIC of antibiotic: 4 µg/mL
[7]; Acinetobacter baumannii J2, + 102 + sulbactam, 4 mg/L each
  MIC of antibiotic: 2 µg/mL
[7]; Acinetobacter baumannii J2, + 103 + clavulanate, 4 mg/L each
  MIC of antibiotic: 8 µg/mL
[7]; Acinetobacter baumannii J2, + 111 + clavulanate, 4 mg/L each
  MIC of antibiotic: 4 µg/mL
[7]; Acinetobacter baumannii J2, + 202 + clavulanate, 4 mg/L each
  MIC of antibiotic: 4 µg/mL
[7]; Acinetobacter baumannii J2, + 206 + clavulanate, 4 mg/L each
  MIC of antibiotic: 4 µg/mL
[7]; Acinetobacter baumannii J2, + 323 + clavulanate, 4 mg/L each
  MIC of antibiotic: 16 µg/mL
[7]; Acinetobacter baumannii J2, + 323 + sulbactam, 4 mg/L each
  MIC of antibiotic: 1 µg/mL
[7]; Acinetobacter baumannii J2, + 324 + clavulanate, 4 mg/L each
  MIC of antibiotic: 32 µg/mL
[7]; Acinetobacter baumannii J2, + 501 4 mg/L
  MIC of antibiotic: <0.06 µg/mL
[7]; Acinetobacter baumannii J2, + clavulanate 4 mg/L
  MIC of antibiotic: >32 µg/mL
[7]; Acinetobacter baumannii J2, antibiotic alone
  MIC of antibiotic: >32 µg/mL
[7]; Acinetobacter sp. J2, antibiotic alone, no inhibitor
  MIC of antibiotic: >22 µg/mL
[8]; [15]
  MIC of antibiotic: 4 µg/mL
[8]; + 102 + sulbactam, 4 mg/L each
  MIC of antibiotic: 32 µg/mL
[8]; [16]
  MIC of antibiotic: 8 µg/mL
[8]; [17]
  MIC of antibiotic: 8 µg/mL
[8]; [18]
  MIC of antibiotic: 8 µg/mL
[8]; [19]
  MIC of antibiotic: >32 µg/mL
[8]; [20]
  MIC of antibiotic: 16 µg/mL
[8]; + 323 + sulbactam, 4 mg/L each
  MIC of antibiotic: 4 µg/mL
[8]; [21]
  MIC of antibiotic: 8 µg/mL
[8]; + 501 4 mg/L
  MIC of antibiotic: >32 µg/mL
[8]; + clavulanate 4 mg/L
  MIC of antibiotic: >32 µg/mL
[8]; antibiotic alone
  MIC of antibiotic: >32 µg/mL
[9]; [15]
  MIC of antibiotic: 2 µg/mL
[9]; + 102 + sulbactam, 4 mg/L each
  MIC of antibiotic: 4 µg/mL
[9]; [16]
  MIC of antibiotic: 4 µg/mL
[9]; [17]
  MIC of antibiotic: 4 µg/mL
[9]; [18]
  MIC of antibiotic: 4 µg/mL
[9]; [19]
  MIC of antibiotic: 4 µg/mL
[9]; [20]
  MIC of antibiotic: 8 µg/mL
[9]; + 323 + sulbactam, 4 mg/L each
  MIC of antibiotic: 4 µg/mL
[9]; [21]
  MIC of antibiotic: 8 µg/mL
[9]; + 501 4 mg/L
  MIC of antibiotic: 8 µg/mL
[9]; + clavulanate 4 mg/L
  MIC of antibiotic: 8 µg/mL
[9]; antibiotic alone
  MIC of antibiotic: 16 µg/mL
[10]; [15]
  MIC of antibiotic: 4 µg/mL
[10]; + 102 + sulbactam, 4 mg/L each
  MIC of antibiotic: 8 µg/mL
[10]; [16]
  MIC of antibiotic: 32 µg/mL
[10]; [17]
  MIC of antibiotic: 4 µg/mL
[10]; [18]
  MIC of antibiotic: 16 µg/mL
[10]; [19]
  MIC of antibiotic: 8 µg/mL
[10]; [20]
  MIC of antibiotic: 4 µg/mL
[10]; + 323 + sulbactam, 4 mg/L each
  MIC of antibiotic: 4 µg/mL
[10]; [21]
  MIC of antibiotic: 4 µg/mL
[10]; + 501 4 mg/L
  MIC of antibiotic: 16 µg/mL
[10]; + clavulanate 4 mg/L
  MIC of antibiotic: 32 µg/mL
[10]; antibiotic alone
  MIC of antibiotic: >32 µg/mL
[11]; [15]
  MIC of antibiotic: 1 µg/mL
[11]; + 102 + sulbactam, 4 mg/L each
  MIC of antibiotic: 1 µg/mL
[11]; [16]
  MIC of antibiotic: 0.5 µg/mL
[11]; [17]
  MIC of antibiotic: <0.06 µg/mL
[11]; [18]
  MIC of antibiotic: 2 µg/mL
[11]; [19]
  MIC of antibiotic: 0.25 µg/mL
[11]; [20]
  MIC of antibiotic: 2 µg/mL
[11]; + 323 + sulbactam, 4 mg/L each
  MIC of antibiotic: 1 µg/mL
[11]; [21]
  MIC of antibiotic: 1 µg/mL
[11]; + 501 4 mg/L
  MIC of antibiotic: 0.5 µg/mL
[11]; + clavulanate 4 mg/L
  MIC of antibiotic: 0.5 µg/mL
[11]; antibiotic alone
  MIC of antibiotic: >32 µg/mL
[12]; [15]
  MIC of antibiotic: 0.25 µg/mL
[12]; + 102 + sulbactam, 4 mg/L each
  MIC of antibiotic: 0.5 µg/mL
[12]; [16]
  MIC of antibiotic: 0.25 µg/mL
[12]; [17]
  MIC of antibiotic: 0.25 µg/mL
[12]; [18]
  MIC of antibiotic: 0.5 µg/mL
[12]; [19]
  MIC of antibiotic: 4 µg/mL
[12]; [20]
  MIC of antibiotic: 0.25 µg/mL
[12]; + 323 + sulbactam, 4 mg/L each
  MIC of antibiotic: 0.5 µg/mL
[12]; [21]
  MIC of antibiotic: 1 µg/mL
[12]; + 501 4 mg/L
  MIC of antibiotic: 4 µg/mL
[12]; + clavulanate 4 mg/L
  MIC of antibiotic: 4 µg/mL
[12]; antibiotic alone
  MIC of antibiotic: >32 µg/mL
[12]; antibiotic alone, no inhibitor
  MIC of antibiotic: 1 µg/mL
[13]; [15]
  MIC of antibiotic: 0.125 µg/mL
[13]; + 102 + sulbactam, 4 mg/L each
  MIC of antibiotic: 2 µg/mL
[13]; [16]
  MIC of antibiotic: 0.125 µg/mL
[13]; [17]
  MIC of antibiotic: 0.125 µg/mL
[13]; [18]
  MIC of antibiotic: 0.125 µg/mL
[13]; [19]
  MIC of antibiotic: 0.125 µg/mL
[13]; [20]
  MIC of antibiotic: 0.125 µg/mL
[13]; + 323 + sulbactam, 4 mg/L each
  MIC of antibiotic: 0.125 µg/mL
[13]; [21]
  MIC of antibiotic: 0.125 µg/mL
[13]; + 501 4 mg/L
  MIC of antibiotic: 0.25 µg/mL
[13]; + clavulanate 4 mg/L
  MIC of antibiotic: 0.5 µg/mL
[13]; antibiotic alone
  MIC of antibiotic: 1 µg/mL
